# According to patent US7816520B2, “5,6-diphenyl-1,2,4-triazinic dimeric derivatives and the use thereof in the form of sun-protective agents” (Pierre Fabre Dermo-Cosmetique, priority 2004, dated 2010):
# Entries after “also recorded” stand apart in the source; their conditions may differ.
# Experiments:
# Assay type in all cases: physicochemical
# [1] = Solubility study in solvents or excipients used in cosmetics; settings: for Solubilities: Soluble, DMSO: solvent DMSO; for Solubilities: Soluble, Transcutol: solvent Transcutol; for Solubilities: Soluble (solvent in which the compound is soluble): value = solvent; for Solubilities: Insoluble (solvent in which the compound is insoluble): value = solvent named in the Insoluble column
# [2] = Spectral characteristics: molar extinction coefficient and specific absorbance (UV spectrophotometry in ethyl acetate); settings: 10 μg/ml; for Maximum molar extinction coefficient UVA / Maximum specific absorbance UVA: UVA band; for Maximum molar extinction coefficient UVB / Maximum specific absorbance UVB: UVB band; for Maximum specific absorbance UVA / Maximum specific absorbance UVB: A1cm^1%; for Wavelength of maximum molar extinction coefficient UVA / Wavelength of maximum molar extinction coefficient UVB / Wavelength of maximum specific absorbance UVA / Wavelength of maximum specific absorbance UVB: the 'at ...' part of the cell
# From the text: The calculation of the molar extinction coefficient (ε) is made from the Beer-Lambert law:
# [formula] Wherein: • A=absorbance • I0=intensity of the incident light • I=intensity of the transmitted light • ε=molar extinction (or molar absorbance) coefficient in M^−1 cm^−1 • l=path length in cm • c=concentration in mol/l
# The molar extinction coefficient can be expressed with respect to a given mass of the product. It thus makes it possible to be able to compare the coefficients of extinction between products for the same given quantity. This quantity is 1% by weight. The molar extinction coefficient thus becomes the specific absorbance (A1cm^1%).
# It is expressed as follows:
# [formula] Wherein: • A1cm^1%=specific absorbance • ε=molar extinction coefficient • M=molar mass
# The spectral characteristics of the compounds in comparison with commercial filters at a concentration of 10 μg/ml are summarized in tables 2-1 and 2-2.
# Procedure: The products are dissolved in ethyl acetate to a concentration of 10 μg/ml. The spectra are measured using a dual-beam spectrophotometer (Varian CARY 50 Scan) between 290 nm and 400 nm.
# [3] = Spectral distribution in UVA and UVB, 290 nm to 400 nm; settings: for Spectral distribution (UV bands absorbed): absorption spectra, FIGS. 1-3; for Absorption peaks: range from 290 nm to 400 nm
# From the text: The products tested are classified according to spectral distribution in UVA and UVB in a range from 290 nm to 400 nm. It is possible to differentiate them according to their spectral distribution: Products with a narrow spectrum: • Products absorbing in the range between 280 nm and 320 nm (UVB) • Products absorbing in the range between 320 nm and 400 nm (UVA) Products with a broad spectrum: • Products absorbing in UVB (280-320 nm) and UVA-II […] • Products covering UVB and UVA (280-400 nm).
# [4] = Photostability in solution in a chemical solvent (Suntest CPS+); settings: 25 μg deposited from methanol, absorbance vs non-irradiated control, in % (unit assumed); for Photostability at 5 MED, mean: Suntest irradiation 5 MED; for Photostability at 10 MED, mean: Suntest irradiation 10 MED
# From the text: A Suntest CPS+(Atlas, Linsengenicht/Altenhasslan, Germany) was used. The Suntest makes it possible to reproduce the solar spectrum and thus to carry out exposures inside at any time without weather constraints.
# The radiance of the solar simulator was carefully measured with a spectroradiometer (MSS 2044, Bielefeld, Germany). UVB and UVA intensities were 0.49 mW/cm^2 and 6.32 mW/cm^2, respectively. The MED value defined by COLIPA is 5.6 J/cm^2 in total UV (22). The UV total (UVA+UVB) accounts for 14.8% of the energy delivered by the lamp (power 460 W/m^2). An irradiation dose equivalent to 1 MED corresponds to 37.83 J/cm^2 (in total spectrum) delivered by the lamp.
# The Suntest test duration is calculated using the following formula: t=H/E with: • E=illumination energy in W/m^2 • H=irradiation dose in J/m^2 • t=duration of the test in s
# The solutions of the compounds are prepared at a concentration of 500 μg/ml in methanol. 50 μl (25 μg) of each solution are deposited in a crystallizer, then irradiated in the Suntest at 5, 10 and/or 20 MED. A non-irradiated control is prepared (deposit of 50 μl of solution and addition of 2.450 ml of methanol). The solvent evaporates during irradiation and the products are taken up in 2.5 ml of methanol. After irradiation, the absorbance of each solution is measured with the UV-visible spectrophotometer (Varian CARY 50 Scan).
Compound,"Solubilities: Soluble, DMSO [1]","Solubilities: Soluble, Transcutol [1]",Solubilities: Soluble (solvent in which the compound is soluble) [1],Solubilities: Insoluble (solvent in which the compound is insoluble) [1],Maximum molar extinction coefficient UVA [2],Maximum molar extinction coefficient UVB [2],Maximum specific absorbance UVA [2],Maximum specific absorbance UVB [2],Wavelength of maximum molar extinction coefficient UVA [2],Wavelength of maximum molar extinction coefficient UVB [2],Wavelength of maximum specific absorbance UVA [2],Wavelength of maximum specific absorbance UVB [2],Spectral distribution (UV bands absorbed) [3],Absorption peaks [3],"Photostability at 5 MED, mean [4]","Photostability at 10 MED, mean [4]",Solubility (%) ([1]; excipient Finsol V NT ® (C12-C15 alkyl benzoate)),Solubility (%) ([1]; excipient Isopropyl adipate),Solubility (%) ([1]; excipient Myritol 318 ® (caprylic/capric triglycerides))
"1,4-bis[5,6-(4,4′-(2-{2-[2-(2-methoxy-ethoxy)-ethoxy]-ethoxy}-ethoxy)-)-diphenyl-1,2,4-triazin-3-yl]benzene [WP41]",DMSO 2.7%,Transcutol 0.1%,DMC and AcOEt (PS) and MeOH (PS),EtOH and Hexane and Myritol,91400 M⁻¹ cm⁻¹,72000 M⁻¹ cm⁻¹,669,527,at 330 nm,at 305 nm,at 330 nm,at 305 nm,absorb in UVB and UVA,,,,,,
"Oc1ccc(-c2nnc(-c3ccc(-c4nnc(-c5ccc(O)cc5)c(-c5ccc(O)cc5)n4)cc3)nc2-c2ccc(O)cc2)cc1 [WP35, 1,4-bis[5,6-(4,4′-dihydroxy)-diphenyl-1,2,4-triazin-3-yl]benzene]",DMSO 3.5%,Transcutol 0.5%,,MeOH and CHCl3 and Ethyl acetate and Hexane and Myritol,27800 M⁻¹ cm⁻¹,29600 M⁻¹ cm⁻¹,460,490,at 355 nm,at 310 nm,at 355 nm,at 310 nm,absorb in UVB and UVA,355 nm,,,,,
"CCCCCCCCCCCCCCCCCCOc1ccc(-c2nnc(-c3ccc(-c4nnc(-c5ccc(OCCCCCCCCCCCCCCCCCC)cc5)c(-c5ccc(OCCCCCCCCCCCCCCCCCC)cc5)n4)cc3)nc2-c2ccc(OCCCCCCCCCCCCCCCCCC)cc2)cc1 [WP38, 1,4-bis[5,6-(4,4′-di-octadecyloxy)-diphenyl-1,2,4-triazin-3-yl]benzene]",,,Benzene; also recorded: Toluene; also recorded: Myritol; also recorded: Transcutol,MeOH and DMC and AcOEt,,,,,,,,,,,,,,,
"Cc1ccc(-c2nnc(-c3ccc(-c4nnc(-c5ccc(C)cc5)c(-c5ccc(C)cc5)n4)cc3)nc2-c2ccc(C)cc2)cc1 [WP39, 1,4-bis[5,6-(4,4′-dimethyl)-diphenyl-1,2,4-triazin-3-yl]benzene]",,,DMSO or hot DMF,Water and MeOH and CHCl3 and Acetone and Acetonitrile and Benzene,48200 M⁻¹ cm⁻¹,,808,,at 335 nm,,at 335 nm,,absorb in UVB and UVA,,,,,,
"COc1ccc(-c2nnc(-c3ccc(-c4nnc(-c5ccc(OC)cc5)c(-c5ccc(OC)cc5)n4)cc3)nc2-c2ccc(OC)cc2)cc1 [WP40, 1,4-bis[5,6-(4,4′-dimethoxy)-diphenyl-1,2,4-triazin-3-yl]benzene]",,,DMSO or hot DMF,Water and MeOH and CHCl3 and Acetone and Acetonitrile and Benzene,,,,,,,,,,,,,,,
"Brc1ccc(-c2nnc(-c3ccc(-c4nnc(-c5ccc(Br)cc5)c(-c5ccc(Br)cc5)n4)cc3)nc2-c2ccc(Br)cc2)cc1 [WP52, 1,4-bis[5,6-(4,4′-dibromo)-diphenyl-1,2,4-triazin-3-yl]benzene]",,,DMSO or hot DMF,Water and MeOH and CHCl3 and Acetone and Acetonitrile and Benzene and Myritol and Transcutol,57300 M⁻¹ cm⁻¹,,669,,at 330 nm,,at 330 nm,,absorb in UVB and UVA,330 nm,,,,,
"Fc1ccc(-c2nnc(-c3ccc(-c4nnc(-c5ccc(F)cc5)c(-c5ccc(F)cc5)n4)cc3)nc2-c2ccc(F)cc2)cc1 [WP89, 1,4-bis[5,6-(4,4′-difluoro)-diphenyl-1,2,4-triazin-3-yl]benzene]",,,Ethyl acetate,,47700 M⁻¹ cm⁻¹,,778,,at 330 nm,,at 330 nm,,absorb in UVB and UVA,330 nm,,,,,
"Clc1ccc(-c2nnc(-c3ccc(-c4nnc(-c5ccc(Cl)cc5)c(-c5ccc(Cl)cc5)n4)cc3)nc2-c2ccc(Cl)cc2)cc1 [WP100, 1,4-bis[5,6-(4,4′-dichloro)-diphenyl-1,2,4-triazin-3-yl]benzene]",,,Hot DMSO,DCM and Et2O and Toluene and Octanol and EtOH and Myritol and Transcutol,43400 M⁻¹ cm⁻¹,,640,,at 300 nm,,at 100 nm,,absorb in UVB and UVA,300 nm,,,,,
c1ccc(-c2nnc(-c3ccc(-c4ccc(-c5nnc(-c6ccccc6)c(-c6ccccc6)n5)cc4)cc3)nc2-c2ccccc2)cc1 [WP135],,,,,57000 M⁻¹ cm⁻¹,,924,,at 330 nm,,at 330 nm,,absorb in UVB and UVA,330 nm,57.45,33.66,,,
"CCCCCC[C@H](C)Oc1ccc(-c2nnc(-c3ccc(-c4nnc(-c5ccc(O[C@@H](C)CCCCCC)cc5)c(-c5ccc(O[C@@H](C)CCCCCC)cc5)n4)cc3)nc2-c2ccc(O[C@@H](C)CCCCCC)cc2)cc1 [WP149, 1,4-bis[5,6-bis(4,1-methylheptyloxyphenyl)-1,2,4-triazine-3-yl]benzene]",,,,,,,,,,,,,,,80.40,38.16,4.5%,2%,2.5%
